Data reported in the NIST ThermoML archive (doi:10.1016/j.jct.2018.04.005).

Columns and labels:
[1] = 100 kPa, Liquid, Vibrating tube method
[2] = xn = mol fraction of the nth substance listed; details: 100 kPa, Liquid, Vibrating tube method

CCCC[n+]1ccn(C)c1.O=S(=O)([N-]S(=O)(=O)C(F)(F)F)C(F)(F)F
[1]
Details | mass density [kg/m3]
293.15 K | 1442.3
298.15 K | 1435.96
303.15 K | 1431.96
308.15 K | 1427.23
313.15 K | 1422.19
318.15 K | 1417.89
323.15 K | 1412.96

CCCCn1cc[n+](C)c1.F[P-](F)(F)(F)(F)F [1-butyl-3-methylimidazolium hexafluorophosphate]
[1]
Details | mass density [kg/m3]
293.15 K | 1370.73
298.15 K | 1366.5
303.15 K | 1361.63
308.15 K | 1359.45
313.15 K | 1355.23
318.15 K | 1351.63
323.15 K | 1347.23

CCCCn1cc[n+](C)c1.F[P-](F)(F)(F)(F)F [1-butyl-3-methylimidazolium hexafluorophosphate] + COC(=O)OC
mass density [kg/m3], [2]
Details | x1 = 0.034 | x1 = 0.0734 | x1 = 0.1196 | x1 = 0.1744 | x1 = 0.2407 | x1 = 0.3222 | x1 = 0.4251 | x1 = 0.559 | x1 = 0.7404 | x1 = 1
293.15 K | 1099.2 | 1128.63 | 1159.82 | 1189.04 | 1220.08 | 1249.42 | 1278.97 | 1308.93 | 1339.9 | 1370.73
298.15 K | 1092.76 | 1122.91 | 1154.74 | 1183.63 | 1214.03 | 1244.28 | 1274.43 | 1303.88 | 1335.38 | 1366.5
303.15 K | 1086.29 | 1116.15 | 1148.32 | 1177.52 | 1208.51 | 1238.99 | 1269.31 | 1298.92 | 1330.3 | 1361.63
308.15 K | 1080.03 | 1110.74 | 1142.49 | 1173.19 | 1203.38 | 1234.34 | 1265.31 | 1295.41 | 1327.51 | 1359.45
313.15 K | 1073.79 | 1104.95 | 1136.01 | 1167.14 | 1197.82 | 1229.08 | 1260.15 | 1290.91 | 1322.98 | 1355.23
318.15 K | 1067.23 | 1098.5 | 1130.22 | 1161.77 | 1192.91 | 1224.39 | 1255.4 | 1286.76 | 1318.91 | 1351.63
323.15 K | 1060.39 | 1092.27 | 1125.56 | 1156.96 | 1187.95 | 1219.55 | 1250.82 | 1282.14 | 1314.13 | 1347.23

CCCCn1cc[n+](C)c1.F[B-](F)(F)F [1-butyl-3-methylimidazolium tetrafluoroborate]
[1]
Details | mass density [kg/m3]
293.15 K | 1202.47
298.15 K | 1200.1
303.15 K | 1195.48
308.15 K | 1191.65
313.15 K | 1187.83
318.15 K | 1184.13
323.15 K | 1180.33

COC(=O)OC [dimethyl carbonate]
[1]
Details | mass density [kg/m3]
293.15 K | 1069.83
298.15 K | 1063.25
303.15 K | 1056.63
308.15 K | 1050.08
313.15 K | 1043.44
318.15 K | 1036.62
323.15 K | 1029.88

COC(=O)OC [dimethyl carbonate] + CCCCn1cc[n+](C)c1.F[P-](F)(F)(F)(F)F
[2], x2 = 0
Details | mass density [kg/m3]
293.15 K | 1069.83
298.15 K | 1063.25
303.15 K | 1056.63
308.15 K | 1050.08
313.15 K | 1043.44
318.15 K | 1036.62
323.15 K | 1029.88
